Laboratory results as given in patent US20160025704A1, “METHODS FOR IDENTIFYING NEUROPROTECTIVE PKC ACTIVATORS” (priority 2013, published 2016).

Tests used:
[1] = Internal toxicity study: Clinical Chemistry Panel & Hematology Panel; format: in vivo
Method: Internal tests measuring various biological markers were performed 24 hours after administering a PKC activator (bryostatin, cyclopropanated arachidonic acid, DCPLA, and DHACP6) at 10× the therapeutic dose. The results are shown below in Tables 5-7.

HCN-2 cells = experiment: Synaptogenesis in HCN-2 cells; format: cell-based, human; details: 10 days
Method: FIG. 9 illustrates that activation of PKC-ε induces synaptogenesis in HCN-2 cells. The HCN-2 cell line was derived from cortical tissue removed from a patient undergoing hemispherectomy for intractable seizures associated with Rasmussen's encephalitis. The cells were treated with either DCPLA-methyl ester or bryostatin-1 for 10 days. […] Thus, PKC-ε activation can induce synaptogenesis in both embryonic and adult neuronal cells.

cerebral ischemia rats = experiment: Spatial learning, memory and visible platform test after cerebral ischemia; format: in vivo; details: 15 μg/m2 tail vein
Method: Protocol: Bryostatin-1 (15 μg/m2) was administered through a tail vein (2 doses/week, for 10 doses), starting 24 hours after the end of the ischemic (2-VO)/hypoxic event. The ability of the rats in spatial learning (2 trials/day for 4 days) and memory (a probe test of 1 min, 24 hours after the last trial) was evaluated, with the first training started 9 days after the last dose of bryostatin-1. […] (Bry—bryostatin-1; Isch—cerebral ischemia; NS—not significant) (*, P<0.05).

mTBI mice = experiment: Minimal traumatic brain injury, MWM cognitive test; format: in vivo; details: 5× i.p. over 14 days; for mTBI induced learning deficits (MWM): injured mice
Method: Protocol: One hour after the minimal traumatic brain injury was induced, the mice received a 5×i.p. bryostatin-1 injection treatment over a period of 14 days, in two injection doses 20 and 30 μg/kg (N=9 in each group). One hour after the last injection of the series, the cognitive ability of the mice was tested in the MWM. Mice were tested for 4 days 6 times a day. On day 5 the platform was removed and the mice memory retention was tested. […] Data was analyzed using repeated measure one way ANOVA and presented as mean±S.E.M. Both doses protected the learning abilities of the injured mice (pb0.01).

[2] = tested on: healthy brown Norway rats; experiment: Learning, memory and mushroom spine synapses in healthy rats, water maze training; format: in vivo; design: learning acquisition: dose or concentration left out as unconfirmed
Description: Protocol: Non-disease, healthy brown Norway rats (at 4-5 months old) were used in this study. […] (Nv=naîve controls; Sw=swim controls; Mz=water maze treatment; and Mz/Br=water maze treatment plus bryostatin treatment).

HL-60 cells = details: Kraft et al. 1986; cited from earlier work
[3] = i.v. 150 μg/m^2 = 10 × Therapeutic Dose, 24 hours, normalized to Control
[4] = i.v. 150 μg/m^2 = 10 × Therapeutic Dose, 24 hours, normalized to Normal
[5] = 10 mg/kg body weight intraperitoneal, 3 doses every other days, during water maze training

## CCC/C=C/C=C/C(=O)O[C@H]1/C(=C/C(=O)OC)C[C@H]2C[C@H]([C@@H](C)O)OC(=O)C[C@H](O)C[C@@H]3C[C@H](OC(C)=O)C(C)(C)[C@](O)(C[C@@H]4C/C(=C/C(=O)OC)C[C@H](/C=C/C(C)(C)[C@]1(O)O2)O4)O3 [Bryostatin, bryostatin-1]
[1]; 24 hours after administering 10× the therapeutic dose, summary of Tables 5-7
  levels of biological markers as compared to normal levels (toxicity): did not demonstrate statistically significant differences in levels of biological markers as compared to normal levels
[1]; [3]
  ALB (Albumin): 91.1 ± 0.8
  ALP (Alkaline phosphatase): 62.8 ± 10.0
  ALT (Alanine aminotransferase): 63.6 ± 3.6
  AST (Aspartate aminotransferase): 75.2 ± 11.3
  BUN (Blood urea nitrogen): 117.0 ± 4.5
  CA (Calcium): 89.2 ± 6.1
  CO2-LC (Bicarbonate): 91.1 ± 4.2
  CREAT (Creatinine): 80.7 ± 3.5
  GLU (Glucose): 77.6 ± 8.4
  K (Potassium): 101.0 ± 3.6
  NA (Sodium): 94.1 ± 1.9
  TBILI (Total bilirubin): 78.2 ± 13.0
  TPROT (Total protein): 91.3 ± 2.8
[1]; [4]
  BA (Basophils): 300.0 ± 200.0
  EO (Eosinophils): 375.0 ± 250.0
  HCT (Hematocrit): 97.3 ± 21.9
  Hb (Hemoglobin): 83.4 ± 19.5
  LY (Lymphocytes): 134.4 ± 55.1
  MCH (Mean corpuscular hemoglobin): 86.7 ± 4.9
  MCHC (Mean corpuscular hemoglobin concentration): 85.1 ± 2.8
  MCV (Mean corpuscular volume): 101.8 ± 2.8
  MO (Monocytes): 133.3 ± 50.0
  MPV (Mean platelet volume): 96.2 ± 2.4
  NE (Neutrophils): 144.8 ± 55.1
  PLT (Platelet count): 109.4 ± 43.9
  RBC (Red Blood Cells): 95.3 ± 20.0
  RDW (Red cell distribution width): 106.8 ± 6.2
  WBC (White blood cells): 142.3 ± 57.3
HCN-2 cells
  differentiation, neuronal branching and punctate colocalization of PSD-95 and synaptophysin: significant differentiation with neuronal branching and increased punctate colocalization of PSD-95 and synaptophysin
Cerebral ischemia rats; 2 doses/week for 10 doses (FIG. 23)
  sensorimotor ability (visible platform test): but not sensorimotor ability
Cerebral ischemia rats; 2 doses/week for 10 doses, training started 9 days after last dose (FIG. 23)
  learning experience and memory after cerebral ischemia: rescues learning experience and memory
mTBI mice; 20 μg/kg
  acquisition of the learning task, mTBI group versus control mice: improved their acquisition of the learning task even beyond that of control mice
  learning of control uninjured mice: no effect on uninjured mice
  mTBI induced learning deficits (MWM): protected against the mTBI induced learning deficits
mTBI mice; 30 μg/kg
  learning of control uninjured mice: improved the learning of control uninjured mice
  mTBI induced learning deficits (MWM): protected against the mTBI induced learning deficits
[2]; [5]
  memory retention: promoted
  memory-specific induction of mushroom spine synapses: promotes memory-specific induction of mushroom spine synapses
[2]; Bryostatin alone, no water maze
  non-mushroom spine density in naïve rats: increased non-mushroom spine density
[2]; intraperitoneal, 3 doses every other days, during water maze training
  learning acquisition: promoted learning acquisition
HL-60 cells
  phorbol ester-induced differentiation of HL-60 cells: block phorbol ester-induced differentiation of HL-60 cells
